Structures are written as SMILES. Values joined by “and” are separate entries in the source; they are usually repeats but may differ in a detail not shown here. Equal entries are not always repeated.

The source of these data is PMC7784773 (Protein Science : A Publication of the Protein Society, 2020).

In test [1] the target is T1, R67 dihydrofolate reductase (R67 DHFR; 4F, 5F, 6F and 7F R67 DHFR) (Escherichia coli, UniProt P00383).
T1 sequence (P00383 1-78): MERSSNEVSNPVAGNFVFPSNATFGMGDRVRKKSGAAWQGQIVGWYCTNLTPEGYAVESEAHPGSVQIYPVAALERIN
Kind of test: […] NMR titration, chemical shift, […] fit. Type of test: binding.

Test [2] addresses T1, R67 dihydrofolate reductase (R67 DHFR; 4F, 5F, 6F and 7F R67 DHFR). Kind of test: […] NMR titration, peak intensity, […] fit. Type of test: binding. To be noted: Kd (μM) ^a / NADP^+.

Regarding `NC(=O)c1ccc[n+]([C@@H]2O[C@H](COP(=O)(O)OP(=O)(O)OC[C@H]3O[C@@H](n4cnc5c(N)ncnc54)[C@H](OP(=O)(O)O)[C@@H]3O)[C@@H](O)[C@H]2O)c1` [NADP^+], the dissociation constant (Kd) in test [1] is 220 ± 20 µM; in test [2], 360 µM and 320 µM and 380 µM.
